Test results: ChEMBL document CHEMBL4219066, “Identification and Mitigation of Reactive Metabolites of 2-Aminoimidazole-Containing Microsomal Prostaglandin E Synthase-1 Inhibitors Terminated Due to Clinical Drug-Induced Liver Injury” (J Med Chem, 2018)

Key:
[1] = Drug metabolism in Beagle dog plasma assessed as N-(4-methyl-5-(4-(trifluoromethyl)phenyl)-1H-imidazol-2-yl)acetamide formation at 300 to 600 mg/kg, po measured after 2 hrs post dose by LC/MS analysis; format: ADME, organism-based, Canis lupus familiaris; details: in vivo
[2] = Drug metabolism in Sprague-Dawley rat plasma assessed as N-(4-methyl-5-(4-(trifluoromethyl)phenyl)-1H-imidazol-2-yl)acetamide formation at 1000 mg/kg, po measured after 2 hrs post dose by LC/MS analysis; format: ADME, organism-based; details: in vivo
[3] = Drug metabolism in dog hepatocytes assessed as 2-(difluoromethyl)-5-((3-hydroxy-2,2-dimethylpropanamido)methyl)-N-(4-(hydroxymethyl)-5-(4-(trifluoromethyl)phenyl)-1H-imidazol-2-yl)nicotinamide formation at 2 uM after 4 hrs by LC-MS/MS analysis; format: ADME, cell-based, Canis lupus familiaris, Hepatocyte
[4] = Drug metabolism in rat hepatocytes assessed as N-carbamimidoyl-2-(difluoromethyl)-5-(pivalamidomethyl)nicotinamide formation at 2 uM after 4 hrs by LC-MS/MS analysis; format: ADME, cell-based, Hepatocyte
[5] = Drug metabolism in Beagle dog plasma assessed as (2S,3S,4S,5R,6R)-3,4,5-trihydroxy-6-(4-methyl-5-(4-(trifluoromethyl)phenyl)-1H-imidazol-2-ylamino)tetrahydro-2H-pyran-2-carboxylic acid formation at 300 to 600 mg/kg, po measured after 2 hrs post dose by LC/MS analysis; format: ADME, organism-based, Canis lupus familiaris; details: in vivo
[6] = Drug metabolism in dog hepatocytes assessed as N-carbamimidoyl-2-(difluoromethyl)-5-(pivalamidomethyl)nicotinamide formation at 2 uM after 4 hrs by LC-MS/MS analysis; format: ADME, cell-based, Canis lupus familiaris, Hepatocyte
[7] = Drug metabolism in human hepatocytes assessed as M2 metabolite formation at 2 uM after 4 hrs by LC-MS/MS analysis; format: ADME, cell-based, Hepatocyte
[8] = Drug metabolism in human hepatocytes assessed as 2-(difluoromethyl)-5-((3-hydroxy-2,2-dimethylpropanamido)methyl)-N-(4-methyl-5-(4-(trifluoromethyl)phenyl)-1H-imidazol-2-yl)nicotinamide formation at 2 uM after 4 hrs by LC-MS/MS analysis; format: ADME, cell-based, Hepatocyte
[9] = Drug metabolism in human hepatocytes assessed as N-carbamimidoyl-2-(difluoromethyl)-5-(pivalamidomethyl)nicotinamide formation at 2 uM after 4 hrs by LC-MS/MS analysis; format: ADME, cell-based, Hepatocyte
[10] = Drug metabolism in dog hepatocytes assessed as 2-(difluoromethyl)-5-((3-hydroxy-2,2-dimethylpropanamido)methyl)-N-(4-methyl-5-(4-(trifluoromethyl)phenyl)-1H-imidazol-2-yl)nicotinamide formation at 2 uM after 4 hrs by LC-MS/MS analysis; format: ADME, cell-based, Canis lupus familiaris, Hepatocyte
[11] = Drug metabolism in human liver microsomes assessed as metabolite M6 formation at 2 uM in presence of 1:1 ratio of unlabeled GSH and [glycine 13C2,15N]-labelled GSH after 0.5 hrs by HPLC-MS analysis; format: ADME, microsome
[12] = Drug metabolism in dog hepatocytes assessed as M2 metabolite formation at 2 uM after 4 hrs by LC-MS/MS analysis; format: ADME, cell-based, Canis lupus familiaris, Hepatocyte
[13] = Drug metabolism in rat hepatocytes assessed as M2 metabolite formation at 2 uM after 4 hrs by LC-MS/MS analysis; format: ADME, cell-based, Hepatocyte
[14] = Drug metabolism in human liver microsomes assessed as M5 metabolite formation at 2 uM in presence of 1:1 ratio of unlabeled GSH and [glycine 13C2,15N]-labelled GSH after 0.5 hrs by HPLC-MS analysis; format: ADME, microsome
[15] = Drug metabolism in rat hepatocytes assessed as 2-(difluoromethyl)-5-((3-hydroxy-2,2-dimethylpropanamido)methyl)-N-(4-methyl-5-(4-(trifluoromethyl)phenyl)-1H-imidazol-2-yl)nicotinamide formation at 2 uM after 4 hrs by LC-MS/MS analysis; format: ADME, cell-based, Hepatocyte
[16] = Drug metabolism in human liver microsomes assessed as metabolite M2 formation at 2 uM in presence of 1:1 ratio of unlabeled GSH and [glycine 13C2,15N]-labelled GSH after 0.5 hrs by HPLC-MS analysis; format: ADME, microsome

Measured: Drug metabolism

Cc1nc(NC(=O)c2cc(CNC(=O)C(C)(C)C)cnc2C(F)F)[nH]c1-c1ccc(C(F)(F)F)cc1
Metabolite_Detected: all assays above
